Data on 21 compounds can be found in US8846951B2 (AbbVie Inc., priority 2009, dated 2014).

The structures appear in SMILES notation. Read-outs that look alike come from different tables or passages of the source. Some results are limits rather than exact numbers.

The target of one experiment is T1, 5HT2C receptors (Homo sapiens, UniProt P28335).
T1 sequence (P28335 33-458): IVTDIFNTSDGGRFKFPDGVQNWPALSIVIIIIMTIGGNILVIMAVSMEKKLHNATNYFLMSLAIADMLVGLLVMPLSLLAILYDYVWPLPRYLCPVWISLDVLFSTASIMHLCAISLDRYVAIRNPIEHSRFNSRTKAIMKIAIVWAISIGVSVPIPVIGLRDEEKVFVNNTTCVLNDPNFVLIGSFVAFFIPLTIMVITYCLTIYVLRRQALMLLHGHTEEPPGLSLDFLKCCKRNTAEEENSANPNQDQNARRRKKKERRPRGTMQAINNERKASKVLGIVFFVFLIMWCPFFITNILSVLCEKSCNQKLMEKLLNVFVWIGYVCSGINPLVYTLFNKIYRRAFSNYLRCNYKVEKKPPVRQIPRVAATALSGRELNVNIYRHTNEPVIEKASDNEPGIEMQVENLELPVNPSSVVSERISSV
Kind of experiment: Human 5-HT2C functional high throughput screening assay in CHO-K1 cells (calcium flux). It counts as cell-based. Set-up: expressed in transfected cells; host or cells: CHO-K1 cells. The note with it: for EC50: CHO-K1 cells, calcium flux; for Emax: CHO-K1, 5-HT2C, maximum functional response as percentage relative to the effect of serotonin. Summed up: (§1)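 Agonism was measured as FLIPR fluorescence increase (480/530 nm, 25° C) with Ca4 dye and 2.5 mM probenecid, in serum-starved CHO-K1 lines overexpressing human 5-HT2C or 5-HT2B. Six-point 1:10 dilutions from 10 μM (0.2% DMSO final) were fitted by 4-parameter logistics. Responses were normalised to serotonin to give EC50 and % Emax.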
(Calcium assays in cells follow changes in intracellular calcium, usually with a dye or a luminescent sensor.)

The next experiment has as its target T2, 5HT2B receptors (Homo sapiens, UniProt P41595).
T2 construct: expressed in transfected cells; host or cells: CHO-K1 cells
Kind of experiment: Human 5-HT2B functional high throughput screening assay in CHO-K1 cells (calcium flux). It counts as cell-based. As to conditions: for EC50: CHO-K1 cells, calcium flux; call rule not given here. Summed up:
as §1

Where [1] appears, read: 5-HT2C agonist activity, read-out: EC50.
The mark [2] stands for this setting: 5-HT2B agonist activity, read-out: EC50.
[3] abbreviates: 5-HT2B, maximum functional response as percentage relative to the effect of serotonin.

For orientation: EC50 means the concentration at which the effect is half-maximal. The term Emax denotes the greatest response seen or fitted, relative to the assay's reference.

T2 sequence (P41595 whole entry): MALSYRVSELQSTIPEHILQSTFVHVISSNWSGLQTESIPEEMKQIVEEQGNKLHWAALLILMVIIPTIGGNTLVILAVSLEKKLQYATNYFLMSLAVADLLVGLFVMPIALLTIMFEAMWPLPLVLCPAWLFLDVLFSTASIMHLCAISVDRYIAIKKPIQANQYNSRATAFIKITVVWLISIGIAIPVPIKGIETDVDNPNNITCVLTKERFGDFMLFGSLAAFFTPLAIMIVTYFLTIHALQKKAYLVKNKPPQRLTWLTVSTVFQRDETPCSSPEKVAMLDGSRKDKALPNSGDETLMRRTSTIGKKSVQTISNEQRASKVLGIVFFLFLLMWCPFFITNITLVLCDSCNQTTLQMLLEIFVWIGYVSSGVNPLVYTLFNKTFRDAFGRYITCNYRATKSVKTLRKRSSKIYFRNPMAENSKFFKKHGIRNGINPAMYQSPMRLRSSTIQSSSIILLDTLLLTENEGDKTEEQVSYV

Turning to `O=C1Cc2ccccc2[C@@H]2CN(Cc3ccccc3)C[C@H]2N1` (relative stereo) [Example 223, Trans-2-benzyl-1,2,3,3a,4,10b-hexahydrobenzo[d]pyrrolo[3,4-b]azepin-5(6H)-one], the figures for the EC50 at 5HT2C receptors (setting [1]) and at 5HT2B receptors (setting [2]) were 5000 nM and greater than 10000 nM, respectively. In addition, the maximum response (Emax) on 5HT2C receptors (read-out: Emax) is 60%; on 5HT2B receptors (setting [3]), “inactive”.

As to `CC(C)COc1ccc2c(c1)C(=O)NC[C@@H]1CN(C)C[C@@H]21` (relative stereo) [Example 172, Trans-8-isobutoxy-2-methyl-1,2,3,3a,4,5-hexahydrobenzo[e]pyrrolo[3,4-c]azepin-6(10bH)-one], the results for the maximal effect (Emax) at 5HT2C receptors and at 5HT2B receptors (setting [3]) were greater than 120% and “inactive”, respectively. Moreover, the EC50 at 5HT2C receptors (EC50, 5-HT2C agonist activity) was 60 nM; at 5HT2B receptors (EC50, 5-HT2B agonist activity), greater than 10000 nM.

`CC(=O)c1cccc(-c2cccc3c2OCC[C@H]2CNC[C@H]32)c1` (relative stereo) [Example 351, 1-{3-[Trans-2,3,3a,4,5,10b-hexahydro-1H-[1]benzoxepino[4,5-c]pyrrol-7-yl]phenyl}ethanone]: the 50% effective concentration (EC50) at 5HT2C receptors (setting [1]) was 90 nM; on 5HT2B receptors (setting [2]) it was greater than 10000 nM. The maximal effect (Emax) is 90% at 5HT2C receptors (read-out: Emax) and “inactive” at 5HT2B receptors (setting [3]).

For `COc1ccc(-c2ccc3c(c2)C(=O)NC[C@H]2CN(C)C[C@H]32)cn1` [Example 318, (3aS,10bS)-8-(6-Methoxypyridin-3-yl)-2-methyl-2,3,3a,4,5,10b-hexahydropyrrolo[3,4-d][2]benzazepin-6(1H)-one], the values for the Emax on 5HT2C receptors and on 5HT2B receptors (setting [3]) were 90% and “inactive”, respectively. Moreover, the EC50 was 10 nM at 5HT2C receptors (EC50, 5-HT2C agonist activity) and greater than 10000 nM at 5HT2B receptors (EC50, 5-HT2B agonist activity).

In the case of `C[C@@H](O)c1cc(-c2ccc3c(c2)C(=O)NC[C@H]2CN(C)C[C@H]32)ccc1F` (single isomer, unassigned) [Example 353], the EC50 at 5HT2C receptors (setting [1]) is 0.3 nM; at 5HT2B receptors (setting [2]) it was greater than 10000 nM. In addition, the values for the Emax at 5HT2C receptors (read-out: Emax) and at 5HT2B receptors (setting [3]) were 110% and “inactive”, respectively.

Consider `COc1ccccc1-c1ccc2c(c1)C(=O)NC[C@H]1CN(C)C[C@H]21` [Example 275, (3aS,10bS)-8-(2-Methoxyphenyl)-2-methyl-1,2,3,3a,4,5-hexahydrobenzo[e]pyrrolo[3,4-c]azepin-6(10bH)-one], for which the values for the concentration for a half-maximal effect (EC50) at 5HT2C receptors (setting [1]) and at 5HT2B receptors (setting [2]) were 20 nM and greater than 10000 nM, respectively. Moreover, the Emax was greater than 120% on 5HT2C receptors (read-out: Emax) and “inactive” at 5HT2B receptors (setting [3]).

As to `CN1C[C@@H]2CNC(=O)c3c(OC(F)(F)F)cccc3[C@H]2C1` [Example 113, (3aS,10bS)-2-Methyl-7-(trifluoromethoxy)-1,2,3,3a,4,5-hexahydrobenzo[c]pyrrolo[3,4-e]azepin-6(10bH)-one], the Emax at 5HT2C receptors turned out to be 120%; on 5HT2B receptors (CHO-K1) it was 20%. Moreover, the EC50 at 5HT2C receptors (EC50, 5-HT2C agonist activity) amounted to 5 nM; on 5HT2B receptors (EC50, 5-HT2B agonist activity) it was 2000 nM.

Consider `CC(C)c1ccc2c(c1)C(=O)NC[C@@H]1CN(C)C[C@@H]21` (relative stereo) [Example 196, Trans-8-isopropyl-2-methyl-1,2,3,3a,4,5-hexahydrobenzo[e]pyrrolo[3,4-c]azepin-6(10bH)-one], for which the EC50 was 500 nM on 5HT2C receptors (setting [1]) and greater than 10000 nM at 5HT2B receptors (setting [2]). Besides, the values for the Emax on 5HT2C receptors and on 5HT2B receptors (setting [3]) were 30% and “inactive”, respectively.

With `CC(O)c1cccc(-c2ccc3c(c2)C(=O)NC[C@@H]2CN(C)C[C@@H]32)c1` (relative stereo) [Example 238, Trans-8-(3-(1-hydroxyethyl)phenyl)-2-methyl-1,2,3,3a,4,5-hexahydrobenzo[c]pyrrolo[3,4-e]azepin-6(10bH)-one], the EC50 on 5HT2C receptors (setting [1]) was 0.7 nM; at 5HT2B receptors (setting [2]) it was greater than 10000 nM. The maximum response (Emax) at 5HT2C receptors (read-out: Emax) is greater than 120%; at 5HT2B receptors (setting [3]), “inactive”.

Take `CN1C[C@H]2CNC(=O)c3cc(-c4ccc(C(F)(F)F)cc4)ccc3[C@@H]2C1` (relative stereo) [Example 79, Trans-2-methyl-8-(4-(trifluoromethyl)phenyl)-1,2,3,3a,4,5-hexahydrobenzo[e]pyrrolo[3,4-c]azepin-6(10bH)-one]: the figures for the EC50 on 5HT2C receptors (setting [1]) and on 5HT2B receptors (setting [2]) were 30 nM and greater than 10000 nM, respectively. Also, the maximal effect (Emax) on 5HT2C receptors (read-out: Emax) was greater than 120%; at 5HT2B receptors (setting [3]), “inactive”.

Consider `CCc1ccc(-c2ccc3c(c2)C(=O)NC[C@@H]2CN(C)C[C@@H]32)cc1` (relative stereo) [Example 139, Trans-8-(4-ethylphenyl)-2-methyl-1,2,3,3a,4,5-hexahydrobenzo[e]pyrrolo[3,4-c]azepin-6(10bH)-one], for which the concentration giving a half-maximal response (EC50) was 30 nM on 5HT2C receptors (setting [1]) and greater than 10000 nM on 5HT2B receptors (setting [2]). Moreover, the Emax was greater than 120% at 5HT2C receptors (read-out: Emax) and “inactive” at 5HT2B receptors (setting [3]).

As for `CNC(=O)c1cccc(-c2ccc3c(c2)C(=O)NC[C@@H]2CN(C)C[C@@H]32)c1` (relative stereo) [Example 382, N-Methyl-3-[Trans-2-methyl-6-oxo-1,2,3,3a,4,5,6,10b-octahydropyrrolo[3,4-d][2]benzazepin-8-yl]benzamide], the concentration for a half-maximal effect (EC50) at 5HT2C receptors (setting [1]) was 90 nM; at 5HT2B receptors (setting [2]), greater than 10000 nM. The maximal effect (Emax) was 100% at 5HT2C receptors (read-out: Emax) and “inactive” on 5HT2B receptors (setting [3]).

For the compound `CN1C[C@H]2CNC(=O)c3cc(N4CCCCC4)ccc3[C@@H]2C1` (relative stereo) [Example 298, Trans-2-methyl-8-(piperidin-1-yl)-2,3,3a,4,5,10b-hexahydropyrrolo[3,4-d][2]benzazepin-6(1H)-one], the 50% effective concentration (EC50) at 5HT2C receptors (setting [1]) was 400 nM; on 5HT2B receptors (setting [2]), greater than 10000 nM. In addition, the Emax at 5HT2C receptors (read-out: Emax) is 80%; on 5HT2B receptors (setting [3]) it was “inactive”.

For `O=S(=O)(c1ccc(OC(F)(F)F)cc1)N1Cc2cccnc2[C@@H]2CNC[C@H]2C1` (relative stereo) [Example 349, Trans-6-{[4-(trifluoromethoxy)phenyl]sulfonyl}-5,6,7,7a,8,9,10,10a-octahydropyrido[3,2-c]pyrrolo[3,4-e]azepine], the figures for the EC50 on 5HT2C receptors (setting [1]) and at 5HT2B receptors (setting [2]) were 200 nM and greater than 10000 nM, respectively. Also, the Emax at 5HT2C receptors (read-out: Emax) was 90%; on 5HT2B receptors (setting [3]), “inactive”.

For `CN1C[C@H]2CN(C)C(=O)c3cc(-c4cccc(C(C)(C)O)c4)ccc3[C@@H]2C1` (relative stereo) [Example 194, Trans-8-(3-(2-hydroxypropan-2-yl)phenyl)-2,5-dimethyl-1,2,3,3a,4,5-hexahydrobenzo[e]pyrrolo[3,4-c]azepin-6(10bH)-one], the half-maximal effective concentration (EC50) is 20 nM at 5HT2C receptors (setting [1]) and greater than 10000 nM at 5HT2B receptors (setting [2]). Also, the Emax is greater than 120% at 5HT2C receptors (read-out: Emax) and “inactive” at 5HT2B receptors (setting [3]).

`CN1C[C@H]2CNC(=O)c3cc(-c4ccccc4S(C)(=O)=O)ccc3[C@@H]2C1` (relative stereo) [Example 232, Trans-2-methyl-8-(2-(methylsulfonyl)phenyl)-1,2,3,3a,4,5-hexahydrobenzo[c]pyrrolo[3,4-e]azepin-6(10bH)-one]: the half-maximal effective concentration (EC50) on 5HT2C receptors (setting [1]) is 3000 nM; at 5HT2B receptors (setting [2]), greater than 10000 nM. For the same compound, the maximal effect (Emax) at 5HT2C receptors (read-out: Emax) is 30%; on 5HT2B receptors (setting [3]) it was “inactive”.

For the compound `O=C1NC[C@@H]2CNC[C@H]2c2sccc21` (relative stereo) [Example 104, Trans-6,6a,7,8,9,9a-hexahydropyrrolo[3,4-e]thieno[3,2-c]azepin-4(5H)-one], the EC50 was 900 nM on 5HT2C receptors (setting [1]) and greater than 10000 nM on 5HT2B receptors (setting [2]). Also, the Emax at 5HT2C receptors is greater than 120%; at 5HT2B receptors (setting [3]), “inactive”.

Regarding `Fc1cccc2c1[C@H]1CNC[C@@H]1CCO2` (relative stereo) [Example 287, Trans-10-fluoro-2,3,3a,4,5,10b-hexahydro-1H-[1]benzoxepino[4,5-c]pyrrole], the Emax on 5HT2C receptors is 95%; on 5HT2B receptors (CHO-K1), 40%. Moreover, the concentration for a half-maximal effect (EC50) came out at 50 nM on 5HT2C receptors (EC50, 5-HT2C agonist activity) and 300 nM at 5HT2B receptors (EC50, 5-HT2B agonist activity).

For the compound `C[C@H](Oc1ccc2c(c1)C(=O)NC[C@@H]1CNC[C@@H]21)c1ccccc1` (mixture of isomers) [Example 155, Trans-8-((S)-1-phenylethoxy)-1,2,3,3a,4,5-hexahydrobenzo[e]pyrrolo[3,4-c]azepin-6(10bH)-one], the maximal effect (Emax) at 5HT2C receptors is greater than 120%; on 5HT2B receptors (setting [3]) it was “inactive”. For the same compound, the half-maximal effective concentration (EC50) at 5HT2C receptors (EC50, 5-HT2C agonist activity) is 50 nM; on 5HT2B receptors (EC50, 5-HT2B agonist activity), greater than 10000 nM.

Turning to `CN1C[C@H]2CNC(=O)c3cc(C(=O)Nc4ccccc4)ccc3[C@@H]2C1` (relative stereo) [Example 128, Trans-2-methyl-6-oxo-N-phenyl-1,2,3,3a,4,5,6,10b-octahydrobenzo[e]pyrrolo[3,4-c]azepine-8-carboxamide], the values for the EC50 on 5HT2C receptors (setting [1]) and at 5HT2B receptors (setting [2]) were 2000 nM and greater than 10000 nM, respectively. For the same compound, the maximal response (Emax) at 5HT2C receptors (read-out: Emax) is 50%; on 5HT2B receptors (setting [3]), “inactive”.

Regarding `O=C1NC[C@@H]2CN(Cc3ccccc3)C[C@H]2c2cc3ccccc3cc21` (relative stereo) [Example 256, Trans-2-benzyl-1,2,3,3a,4,5-hexahydronaphtho[2,3-c]pyrrolo[3,4-e]azepin-6(12bH)-one], the values for the EC50 at 5HT2C receptors (setting [1]) and on 5HT2B receptors (setting [2]) were 100 nM and greater than 10000 nM, respectively. Moreover, the Emax on 5HT2C receptors (read-out: Emax) is 90%; on 5HT2B receptors (setting [3]), “inactive”.
